{"source": "patent US7314616B1", "about": "“Additive containing an anti-fungal amount of a salt of formic acid” (priority 2003, dated 2008)", "tested_on": "fungi spores", "assay": "inhibitory effect on the growth of fungi spores", "format": "cell-based"}
{"smiles": "COC1=CC(=O)O[C@@H](CCc2ccc3c(c2)OCO3)C1", "note": "[dihydromethysticin]", "values": [{"measurement": "inhibitory effect on the growth of fungi spores", "result": "exhibit inhibitory effect"}]}
{"smiles": "COC1=CC(=O)O[C@@H](CCc2ccccc2)C1", "note": "[diydrokawain]", "values": [{"measurement": "inhibitory effect on the growth of fungi spores", "result": "exhibit inhibitory effect"}]}
{"smiles": "COC1=CC(=O)O[C@@H](/C=C/c2ccccc2)C1", "note": "[kawain]", "values": [{"measurement": "inhibitory effect on the growth of fungi spores", "result": "exhibit inhibitory effect"}]}
